Blank lines part the entries; values can stand above or below the compound they belong to.
Columns and labels:
CFTR [1] = target: T1, CFTR (Mus musculus, UniProt P26361); experiment: Short-circuit current measurement in mouse distal colon (ex vivo)
T1 construct: a full-thickness fragment is mounted in a micro-Ussing chamber; from tissue; host or cells: CD1 mouse colon, full-thickness fragment
Excerpt: For intestinal short-circuit current measurement, CD1 mice are anesthetized with isoflurane. The colon is removed, washed with ice-cold Krebs buffer, opened along the mesenteric border, and a full-thickness fragment is mounted in a micro-Ussing chamber (area 0.7 cm^2, World Precision Instruments). Hemichambers are filled with oxygenated Krebs-bicarbonate solution.

CFTR [2] = target: T2, CFTR (Rattus norvegicus, UniProt P34158); experiment: Rat model of bile acid diarrhea (mid-colonic CDCA infusion); type: in vivo
T2 construct: from tissue; host or cells: Sprague-Dawley rats in vivo, colon
T2 sequence (P34158 whole entry, the tested form may be a part): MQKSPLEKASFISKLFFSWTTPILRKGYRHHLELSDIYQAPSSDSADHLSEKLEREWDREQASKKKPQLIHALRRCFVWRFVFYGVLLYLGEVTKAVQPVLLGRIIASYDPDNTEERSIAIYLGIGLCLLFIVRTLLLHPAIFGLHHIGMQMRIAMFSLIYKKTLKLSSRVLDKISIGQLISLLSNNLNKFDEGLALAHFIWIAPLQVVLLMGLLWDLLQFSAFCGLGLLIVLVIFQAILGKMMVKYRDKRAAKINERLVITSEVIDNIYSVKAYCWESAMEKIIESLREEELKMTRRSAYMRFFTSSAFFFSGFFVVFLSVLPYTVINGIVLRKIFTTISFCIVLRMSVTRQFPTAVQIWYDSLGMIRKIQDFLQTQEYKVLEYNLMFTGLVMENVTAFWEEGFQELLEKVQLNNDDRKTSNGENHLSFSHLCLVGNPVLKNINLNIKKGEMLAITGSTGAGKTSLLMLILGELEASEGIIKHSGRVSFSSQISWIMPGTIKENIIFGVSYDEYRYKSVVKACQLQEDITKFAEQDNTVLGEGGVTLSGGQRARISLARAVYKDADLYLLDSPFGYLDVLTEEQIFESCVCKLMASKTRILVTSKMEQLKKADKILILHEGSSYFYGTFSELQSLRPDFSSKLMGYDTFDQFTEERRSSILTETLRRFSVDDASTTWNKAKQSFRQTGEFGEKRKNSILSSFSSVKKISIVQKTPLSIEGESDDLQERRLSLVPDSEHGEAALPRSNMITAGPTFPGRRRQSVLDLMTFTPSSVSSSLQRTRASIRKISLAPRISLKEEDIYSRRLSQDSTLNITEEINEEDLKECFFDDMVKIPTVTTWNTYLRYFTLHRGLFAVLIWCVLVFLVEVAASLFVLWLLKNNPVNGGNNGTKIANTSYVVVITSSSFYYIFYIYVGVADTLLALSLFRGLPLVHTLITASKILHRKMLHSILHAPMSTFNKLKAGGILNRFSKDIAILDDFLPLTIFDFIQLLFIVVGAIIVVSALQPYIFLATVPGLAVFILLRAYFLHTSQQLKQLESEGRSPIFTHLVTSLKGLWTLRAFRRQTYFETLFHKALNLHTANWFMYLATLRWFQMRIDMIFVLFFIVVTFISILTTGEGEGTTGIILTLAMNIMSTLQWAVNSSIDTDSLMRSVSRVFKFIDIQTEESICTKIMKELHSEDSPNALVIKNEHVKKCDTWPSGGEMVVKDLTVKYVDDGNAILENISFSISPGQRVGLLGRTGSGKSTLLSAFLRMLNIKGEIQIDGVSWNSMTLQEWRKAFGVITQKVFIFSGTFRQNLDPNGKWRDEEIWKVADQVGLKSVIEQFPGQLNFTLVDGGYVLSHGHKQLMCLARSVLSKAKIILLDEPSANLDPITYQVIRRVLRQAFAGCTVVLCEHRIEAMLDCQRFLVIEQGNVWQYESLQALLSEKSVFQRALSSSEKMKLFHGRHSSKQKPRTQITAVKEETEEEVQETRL
Method: Female Sprague-Dawley rats (age 8-10 weeks) are administered 500 μl CDCA (10 mM in PBS) or PBS vehicle by a mid-colonic infusion using a flexible plastic tube (15 gauge, 78 mm length, Instech Laboratories, Plymouth Meeting, Pa.). Rats are intraperitoneally administered (R)-BPO-27 (10 mg/kg) (or vehicle control) 30 min before infusion. (R)-BPO-27 is dissolved in saline containing 5% DMSO and 10% Kolliphor HS. Following the infusion, rats are placed individually in metabolic cages and given free access to water and food. Stool samples are collected prior to infusion (for baseline stool water content) and over 4 hours after the infusion. Stools are weighed immediately when visualized to determine wet weight. To determine stool water content, the stool samples are dried at 70° C. for 24 hours and water content is calculated as (wet weight−dry weight)/wet weight.

CFTR [3] = target: T3, CFTR (Homo sapiens, UniProt P13569); experiment: Short-circuit current measurements in T84 cells (bile acid-induced secretory current); type: cell-based; design: short-circuit current provides a direct measure of apical CFTR Cl^− current; host or cells: T84 cells; settings: for prosecretory response (increase in short-circuit current) to bile acid: bile acid added to both apical and basolateral bathing solutions; for block of the increase in short-circuit current following CDCA application: CDCA 0.75 mM both bathing solutions, inhibitor 10 μM
T3 sequence (P13569 whole entry): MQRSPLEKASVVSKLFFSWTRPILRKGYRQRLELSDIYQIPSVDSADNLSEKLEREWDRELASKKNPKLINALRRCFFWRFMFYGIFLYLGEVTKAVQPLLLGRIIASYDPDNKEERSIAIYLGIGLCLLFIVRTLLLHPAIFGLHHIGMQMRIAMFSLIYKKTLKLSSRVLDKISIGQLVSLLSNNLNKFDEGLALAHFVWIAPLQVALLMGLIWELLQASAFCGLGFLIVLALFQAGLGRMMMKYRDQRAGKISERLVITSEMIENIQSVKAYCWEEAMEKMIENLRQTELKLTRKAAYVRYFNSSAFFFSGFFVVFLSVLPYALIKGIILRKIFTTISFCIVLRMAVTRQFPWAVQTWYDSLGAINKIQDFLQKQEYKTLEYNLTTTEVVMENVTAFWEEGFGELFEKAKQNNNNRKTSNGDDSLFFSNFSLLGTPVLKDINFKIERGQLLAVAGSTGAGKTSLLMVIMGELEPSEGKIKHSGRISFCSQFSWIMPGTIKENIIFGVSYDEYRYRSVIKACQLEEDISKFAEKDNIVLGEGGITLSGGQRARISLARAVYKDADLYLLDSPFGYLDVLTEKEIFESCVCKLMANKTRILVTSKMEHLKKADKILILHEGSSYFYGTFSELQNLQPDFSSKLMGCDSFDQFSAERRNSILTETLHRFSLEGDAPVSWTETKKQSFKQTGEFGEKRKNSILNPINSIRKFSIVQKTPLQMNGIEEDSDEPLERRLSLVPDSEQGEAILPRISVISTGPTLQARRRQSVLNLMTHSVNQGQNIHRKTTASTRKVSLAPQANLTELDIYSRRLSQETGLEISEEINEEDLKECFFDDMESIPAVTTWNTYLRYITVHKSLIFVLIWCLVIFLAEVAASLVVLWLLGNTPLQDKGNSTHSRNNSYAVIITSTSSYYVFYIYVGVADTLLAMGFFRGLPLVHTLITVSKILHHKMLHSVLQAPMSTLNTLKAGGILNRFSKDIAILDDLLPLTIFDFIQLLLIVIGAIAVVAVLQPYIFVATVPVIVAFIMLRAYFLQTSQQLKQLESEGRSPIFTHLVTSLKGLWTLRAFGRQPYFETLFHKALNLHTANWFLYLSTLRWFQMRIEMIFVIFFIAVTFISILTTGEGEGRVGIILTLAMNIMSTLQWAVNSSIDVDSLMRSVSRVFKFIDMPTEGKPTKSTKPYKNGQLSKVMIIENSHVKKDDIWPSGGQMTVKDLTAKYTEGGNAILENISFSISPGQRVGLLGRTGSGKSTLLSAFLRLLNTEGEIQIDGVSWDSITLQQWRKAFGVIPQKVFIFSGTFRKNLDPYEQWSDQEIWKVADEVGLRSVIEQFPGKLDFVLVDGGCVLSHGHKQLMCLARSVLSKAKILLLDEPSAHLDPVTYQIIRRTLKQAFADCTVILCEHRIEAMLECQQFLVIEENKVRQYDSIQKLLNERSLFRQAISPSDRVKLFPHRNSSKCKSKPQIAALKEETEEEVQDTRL
Method: T84 cells (ATCC CCL-248) are cultured in a 1:1 mixture of DMEM/Ham's F-12 medium supplemented with 10% FBS, 100 U/mL penicillin and 100 μg/mL streptomycin. Cells are grown on Snapwell inserts (Costar Corning, Horseheads, N.Y.) at 37° C. in 5% CO2/95% air and used 7-14 days after plating.
T84 cells are mounted in Ussing chambers and bathed in symmetrical HCO3^−-buffered solution containing (in mM): 120 NaCl, 5 KCl, 1 MgCl2, 1 CaCl2), 10 D-glucose, 5 HEPES and 25 NaHCO3 (pH 7.4). The solutions are aerated with 95% O2/5% CO2 and maintained at 37° C. In one study, for measurement of apical Cl^− conductance, a basolateral to apical Cl^− gradient is applied in which the basolateral hemichamber contains (in mM): 120 NaCl, 1 MgCl2, 1 CaCl2, 10 D-glucose, 5 HEPES and 25 NaHCO3 (pH 7.4); in the apical solution 120 mM NaCl is replaced by 5 mM NaCl and 115 mM Na-gluconate, and the basolateral membrane is permeabilized with 250 µg/ml amphotericin B. Short-circuit current is measured using an EVC4000 multichannel voltage clamp (World Precision Instruments, Sarasota, Fla.).

CFTR [4] = target: T1, CFTR; experiment: CDCA-induced fluid secretion in closed intestinal loops in mice; type: in vivo; settings: for reduction in loop fluid accumulation: 5 mg/kg intraperitoneally 60 min before
Method: CD1 mice (age 8-10 weeks) are given access to 5% dextrose water but not solid food for 24 h before experiments. Mice are administered (R)-BPO-27 (5 mg/kg) or vehicle (5% DMSO, 10% Kolliphor HS in saline) intraperitoneally 60 min before creation of closed intestinal (mid-jejunal or distal colonic) loops and injection of CDCA or PBS vehicle. […] See Cil, O., et al. (2017) Benzopyrimido-pyrrolo-oxazine-dione CFTR inhibitor (R)-BPO-27 for antisecretory therapy of diarrheas caused by bacterial enterotoxins. FASEB J 31, 751-760. For creation of loops, mice are anesthetized with isoflurane, and body temperature is maintained during surgery at 36-38° C. using a heating pad. A small abdominal incision is made to expose the intestine. For the mid-jejunal closed-loop model, 2-3 cm loops are created by sutures. Loops are injected with 100 μl PBS containing CDCA or PBS vehicle. The abdominal incision is closed with sutures, and mice are allowed to recover from anesthesia. In the colonic closed-loop model, mice are given an enema (500 μl of mineral oil) 12 hours before surgery to cleanse the colon of solids as previously reported (Haggie, P. M., et al. (2018) SLC26A3 inhibitor identified in small molecule screen blocks colonic fluid absorption and reduces constipation. JCI Insight 3, e121370) and a 1-2 cm closed loop is created by sutures. Intestinal loops are surgically removed at specified times, and loop length and weight is measured to quantify fluid secretion. In some experiments, CF mice (ΔF508 homozygous, age 8-10 weeks) are used.

[5] = mice; 5 mg/kg intraperitoneally; cited from earlier work
CFTR [6] = target: T3, CFTR; experiment: Short-circuit current in primary human colonoid monolayer cultures; type: cell-based; design: Human cultures are generated from isolated intestinal crypts embedded in Matrigel; endogenous in cells; host or cells: primary human colonoid monolayers from three subjects; settings: human colonoid monolayers
Excerpt: Human colonoid cultures are generated from de-identified tissue samples (other than age and sex) obtained from endoscopic or surgical procedures from three different subjects. Human cultures are generated from isolated intestinal crypts embedded in Matrigel (Corning, Tewksbury, Mass.) in 24-well plates and cultured in the presence of Wnt3A, R-spondin-1 and Noggin containing undifferentiated media (UDM) as described in Zachos, N. C. et. al (2016) Human enteroids/colonoids and intestinal organoids functionally recapitulate normal intestinal physiology and pathophysiology. J Biol Chem 291, 3759-3766; In, J., et al. (2016) Enterohemorrhagic Escherichia coli reduce mucus and intermicrovillar bridges in human stem cell-derived colonoids. Cell Mol Gastroenterol Hepatol 2, 48-62. Matrigel cultures in UDM media are used for the propagation of colonoids. To generate monolayer cultures, colonoids are triturated in Cultrex Organoid Harvesting Solution (Trevigen, Gaithersburg, Md.), and the fragments are collected by centrifugation and resuspended in UDM. Colonoid fragments (100 μL) are seeded onto 0.4 μm pore polyester membrane 24-well cell culture inserts (Transwell; Corning, Tewksbury, Mass.) pre-coated with human collagen IV (34 μg/mL; Millipore Sigma). […] Under these conditions, cultures reach confluency in 7-14 days as monitored by transepithelial resistance. […]

T84 cells = experiment: Intracellular Ca2+ measurement by Fluo-4 fluorescence in T84 cells; type: cell-based; settings: CDCA 0.75 or 1 mM, ATP or carbachol 100 μM, BAPTA-AM 30 μM pretreatment 30 min
Method: T84 cells are plated in 96-well black-walled microplates. Confluent cells are loaded with Fluo-4 NW (Invitrogen, Carlsbad, Calif.) at 72 h after plating. For Ca^2+ measurement Fluo-4 fluorescence is measured with a FluoStar fluorescence plate reader (BMG Lab Technologies, Durham, N.C.) at excitation/emission wavelengths of 485/538 nm. In some studies cells are pretreated for 30 min with BAPTA-AM. Ca^2+ measurement in human colonoid cultures is done in monolayers that are transduced with the fluorescent Ca^2+ sensor Adeno-GCsMP6s. For cAMP assay, T84 cells are grown in 24-well plates, treated for 30 min with CDCA and/or forskolin, lysed by repeating freeze/thaw, centrifuged to remove cell debris, and the supernatant is assayed for cAMP using the Parameter cAMP immunoassay kit according to the manufacturer's instructions (R&D Systems, Minneapolis, […].).

[7] = closed mid-jejunal loops, CDCA 10 mM

T1 sequence (P26361 whole entry, the tested form may be a part): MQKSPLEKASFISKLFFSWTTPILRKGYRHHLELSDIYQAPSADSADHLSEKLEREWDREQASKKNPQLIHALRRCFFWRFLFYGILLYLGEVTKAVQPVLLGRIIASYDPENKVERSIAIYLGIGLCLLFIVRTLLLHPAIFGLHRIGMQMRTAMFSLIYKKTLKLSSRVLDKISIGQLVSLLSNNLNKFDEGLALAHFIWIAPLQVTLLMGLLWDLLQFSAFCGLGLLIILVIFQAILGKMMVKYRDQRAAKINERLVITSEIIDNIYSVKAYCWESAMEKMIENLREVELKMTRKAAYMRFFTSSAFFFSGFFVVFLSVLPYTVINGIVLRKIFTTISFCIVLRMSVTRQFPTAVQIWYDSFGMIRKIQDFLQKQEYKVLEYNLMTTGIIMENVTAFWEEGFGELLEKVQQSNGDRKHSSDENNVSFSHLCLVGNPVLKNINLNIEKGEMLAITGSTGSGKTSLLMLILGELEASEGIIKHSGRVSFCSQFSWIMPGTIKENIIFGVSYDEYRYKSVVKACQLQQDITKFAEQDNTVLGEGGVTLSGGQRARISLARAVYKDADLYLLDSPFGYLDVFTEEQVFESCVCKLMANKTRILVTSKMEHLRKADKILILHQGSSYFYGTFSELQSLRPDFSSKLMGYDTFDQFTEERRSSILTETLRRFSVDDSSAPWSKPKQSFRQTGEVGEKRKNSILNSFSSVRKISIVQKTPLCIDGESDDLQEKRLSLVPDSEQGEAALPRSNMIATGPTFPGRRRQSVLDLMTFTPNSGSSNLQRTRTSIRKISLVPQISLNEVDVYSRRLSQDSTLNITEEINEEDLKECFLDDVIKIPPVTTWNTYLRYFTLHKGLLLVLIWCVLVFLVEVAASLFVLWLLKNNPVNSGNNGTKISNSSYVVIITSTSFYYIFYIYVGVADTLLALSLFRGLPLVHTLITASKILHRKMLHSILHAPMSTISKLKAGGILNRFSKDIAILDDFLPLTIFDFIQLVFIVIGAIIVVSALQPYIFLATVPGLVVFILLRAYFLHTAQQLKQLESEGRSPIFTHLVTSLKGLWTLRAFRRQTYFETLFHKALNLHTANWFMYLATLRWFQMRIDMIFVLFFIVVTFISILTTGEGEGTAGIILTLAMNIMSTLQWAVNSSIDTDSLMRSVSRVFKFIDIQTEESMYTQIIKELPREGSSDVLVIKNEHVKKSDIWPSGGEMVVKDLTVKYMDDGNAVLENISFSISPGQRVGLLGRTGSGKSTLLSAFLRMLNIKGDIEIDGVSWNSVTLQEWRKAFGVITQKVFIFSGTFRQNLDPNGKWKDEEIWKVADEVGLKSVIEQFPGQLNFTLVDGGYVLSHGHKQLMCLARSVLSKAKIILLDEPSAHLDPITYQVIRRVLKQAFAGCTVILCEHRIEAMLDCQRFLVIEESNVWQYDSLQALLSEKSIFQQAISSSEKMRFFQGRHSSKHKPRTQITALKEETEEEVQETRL

Structure (SMILES): C[C@H](CCC(=O)O)[C@H]1CC[C@H]2[C@@H]3[C@H](O)C[C@@H]4C[C@H](O)CC[C@]4(C)[C@H]3CC[C@]12C [CDCA, chenodeoxycholic acid, reference compound]
increase in short-circuit current (CFTR [1]; CDCA 1 mM added to apical bathing solution, mean±S.E.M., n=3): 5.2±1.4 μA/cm^2 | increase in short-circuit current (in words) (CFTR [1]; CDCA added to basolateral bathing solution): No increase in short-circuit current | increase in stool water content (CFTR [2]; rats, mid-colonic infusion of CDCA 10 mM, stool over 4 hours): ~25% | prosecretory response (increase in short-circuit current) to bile acid (CFTR [3]; T84 cells): robust secretory current

Structure (SMILES): C[C@H](CCC(=O)O)[C@H]1CC[C@H]2[C@@H]3[C@H](O)C[C@@H]4C[C@H](O)CC[C@]4(C)[C@H]3C[C@H](O)[C@]12C [cholic acid, reference compound]
prosecretory response (increase in short-circuit current) to bile acid (CFTR [3]; T84 cells): No increase in short-circuit current

Structure (SMILES): Cn1c(=O)c2c(-c3ccccc3)n3c(c2n(C)c1=O)[C@@H](c1ccc(Br)o1)Oc1ccc(C(=O)O)cc1-3 [(S)-BPO-27, 6-(5-Bromofuran-2-yl)-7,9-dimethyl-8,10-dioxo-11-phenyl-7,8,9,10-tetrahydro-6H-benzo[b]pyrimido [4′,5′:3,4]pyrrolo [1,2-d][1,4]oxazine-2-carboxylic acid, reference compound]
effect on loop fluid accumulation (in words) (CFTR [4]; [7]): no significant effect

Structure (SMILES): CC(=O)OCOC(=O)CN(CC(=O)OCOC(C)=O)c1ccccc1OCCOc1ccccc1N(CC(=O)OCOC(C)=O)CC(=O)OCOC(C)=O [BAPTA-AM, 1,2-Bis(2-aminophenoxy)ethane-N,N,N′,N′-tetraacetic acid tetrakis(acetoxymethyl ester), reference compound]
block of Ca2+ elevations (T84 cells): largely blocked | block of CDCA-induced increase in short-circuit current by pretreatment (CFTR [3]; T84 cells, CDCA 1 mM, BAPTA-AM 30 μM pretreatment 25 min): largely blocked | reduction of CDCA-induced increase in short-circuit current by pretreatment (CFTR [6]; CDCA 0.5 mM, BAPTA-AM 30 μM pretreatment 20 min): greatly reduced

Further lines, with some results ahead:

block of the increase in short-circuit current following CDCA application (CFTR [3]; T84 cells): fully blocked
Structure (SMILES): O=C(O)c1ccc(/C=C2\SC(=S)N(c3cccc(C(F)(F)F)c3)C2=O)cc1 [CFTRinh-172, 4-[[4-Oxo-2-thioxo-3-[3-(trifluoromethyl)phenyl]-5-thiazolidinylidene]methyl]benzoic acid, reference compound]

change in short-circuit current after (R)-BPO-27 (CFTR [1]; after apical CDCA 1 mM, (R)-BPO-27 10 μM, mean±S.E.M., n=3): −5.2±1.7 μA/cm^2 | reversal of CDCA-induced short-circuit current (CFTR [1]; apical CDCA 1 mM, (R)-BPO-27 10 μM): fully reversed | reduction in loop fluid accumulation (CFTR [4]; closed colonic loops, CDCA 2.5, 10 mM): ~70% | reduction in loop fluid accumulation (CFTR [4]; [7]): 55% | effect on stool quantity or water content (CFTR [2]; rats receiving mid-colonic infusion of PBS, 10 mg/kg intraperitoneally): does not affect | inhibition of the increase in stool water content (CFTR [2]; rats, mid-colonic CDCA infusion 10 mM, 10 mg/kg intraperitoneally 30 min before, stool over 4 hours): ~55% | block of the increase in short-circuit current following CDCA application (CFTR [3]; T84 cells): fully blocked | block of secretory current produced by CDCA, DCA and their taurine conjugates (CFTR [3]; T84 cells, bile acids in apical and basolateral solutions, (R)-BPO-27 10 μM): blocked | IC50 (CFTR [3]; T84 cells, concentration-dependence studies, data not shown, read-out: IC50 for inhibition of CDCA-induced short-circuit current): < 1000 nM | block of increased current after CDCA followed by forskolin (CFTR [3]; T84 cells, forskolin 10 μM, (R)-BPO-27 10 μM): fully blocked | inhibition of CDCA-activated apical CFTR Cl− current (CFTR [3]; basolateral membrane-permeabilized T84 monolayers, Cl− gradient, apical CDCA 0.75 or 1 mM, (R)-BPO-27 10 μM): inhibition by (R)-BPO-27 is confirmed | reversal of CDCA-induced increase in short-circuit current (CFTR [6]; apical CDCA, (R)-BPO-27 5 μM): reversed
Structure (SMILES): Cn1c(=O)c2c(-c3ccccc3)n3c(c2n(C)c1=O)[C@H](c1ccc(Br)o1)Oc1ccc(C(=O)O)cc1-3 [(R)-BPO-27, 6-(5-Bromofuran-2-yl)-7,9-dimethyl-8,10-dioxo-11-phenyl-7,8,9,10-tetrahydro-6H-benzo[b]pyrimido [4′,5′:3,4]pyrrolo [1,2-d][1,4]oxazine-2-carboxylic acid]
serum levels [5]: therapeutic serum levels for several hours
